Measurements published in EPA's ToxRefDB 2.

Legend:
[1] = test system: primate; settings: Subchronic oral toxicity in nonrodent, Gavage/Intubation, dose end: 91 day, group: systemic, systemic / in life observation / body weight / body weight + systemic / in life observation / clinical signs / [other] + systemic / in life …
[2] = test system: rabbit; settings: Prenatal developmental toxicity study; Oral; Gavage/Intubation; dose end: 19 GD; group: maternal; systemic / in life observation / clinical signs / abnormal feces + systemic / in life observation / clinical signs / red or crusty deposits …
[3] = test system: rat; settings: Sub-acute repeat dose toxicity; Oral; Gavage/Intubation; dose end: 14 day; group: systemic; systemic / in life observation / clinical signs / ataxia + systemic / in life observation / clinical signs / urine staining - perineum + …
[4] = test system: rat; settings: Sub-acute repeat dose toxicity; wistar; Oral; Gavage/Intubation; dose end: 7 day; group: systemic; systemic / clinical chemistry / [other] / [other] + systemic / pathology microscopic / blood / vasculitis
[5] = test system: rat; settings: Fertility (Segment I), Oral, Gavage/Intubation, dose end: 1 generation, group: parental
[6] = test system: rat; settings: Sub-acute repeat dose toxicity, sprague dawley, Oral, Gavage/Intubation, dose end: 30 day, group: systemic
[7] = test system: rat; settings: Sub-acute repeat dose toxicity, sprague dawley, Oral, Gavage/Intubation, dose end: 14 day, group: systemic
[8] = test system: rat; settings: Sub-acute repeat dose toxicity, Oral, Gavage/Intubation, dose end: 7 day, group: systemic
[9] = test system: dog; settings: Sub-acute repeat dose toxicity, beagle, Oral, Gavage/Intubation, dose end: 14 day, group: systemic
[10] = test system: rat; settings: Sub-acute repeat dose toxicity; Oral; Gavage/Intubation; dose end: 14 day; group: systemic; systemic / in life observation / clinical signs / convulsions + systemic / in life observation / clinical signs / reduced activity + …
[11] = test system: rat; settings: Prenatal developmental toxicity study, sprague dawley, Oral, Gavage/Intubation, dose end: 15 GD
[12] = test system: rat; settings: Subchronic oral toxicity in rodents, sprague dawley, Feed, dose end: 90 day, group: systemic, systemic / in life observation / body weight / body weight + systemic / in life observation / body weight / body weight gain + systemic / in…
[13] = test system: mouse; settings: Carcinogenicity, cd1, Oral, Feed, dose end: 81 week, group: systemic
[14] = test system: rat; settings: Subchronic oral toxicity in rodents, sprague dawley, Feed, dose end: 90 day, group: systemic
[15] = test system: rat; settings: Combined chronic toxicity/carcinogenicity, sprague dawley, Oral, [Not Specified], dose end: 2 year, group: systemic
[16] = test system: rat; settings: Multigenerational reproductive toxicity study, sprague dawley, Oral, Feed, dose end: 2 generation; for LOAEL: systemic / organ weight / brain / nos
[17] = test system: mouse; settings: Subchronic oral toxicity in rodents, other, Feed, dose end: 90 day, group: systemic
[18] = test system: dog; settings: Chronic toxicity, beagle, Oral, Capsule, dose end: 12 month, group: systemic
[19] = test system: rat; settings: Subchronic oral toxicity in rodents, sprague dawley, Feed, dose end: 90 day, group: systemic; remark: listed apart in the source
[20] = test system: rat; settings: Subchronic oral toxicity in rodents, sprague dawley, Feed, dose end: 93 day, group: systemic
[21] = test system: mouse; settings: Carcinogenicity, b6c3f1, Oral, Gavage/Intubation, dose end: 102 week, group: systemic
[22] = test system: rat; settings: Carcinogenicity, fischer, Oral, Gavage/Intubation, dose end: 102 week, group: systemic
[23] = test system: rat; settings: Subchronic oral toxicity in rodents, fischer, Gavage/Intubation, dose end: 13 week, group: systemic
[24] = test system: mouse; settings: Subchronic oral toxicity in rodents, b6c3f1, Gavage/Intubation, dose end: 13 week, group: systemic
[25] = systemic / in life observation / clinical signs / abnormal feces + systemic / in life observation / clinical signs / convulsions + systemic…
[26] = systemic / in life observation / clinical signs / convulsions + systemic / in life observation / clinical signs / salivation
[27] = systemic / clinical chemistry / aspartate aminotransferase (ast/sgot) / aspartate aminotransferase (ast/sgot) + systemic / clinical …
[28] = systemic / clinical chemistry / [other] / [other] + systemic / in life observation / body weight / body weight gain + systemic / in life …
[29] = systemic / pathology microscopic / liver / fatty change + systemic / pathology microscopic / liver / hypertrophy
[30] = systemic / clinical chemistry / cholesterol / cholesterol + systemic / clinical chemistry / gamma glutamyl transferase (ggt) / gamma …
[31] = systemic / in life observation / clinical signs / abnormal feces + systemic / in life observation / clinical signs / arrhythmia
[32] = systemic / in life observation / clinical signs / abnormal feces + systemic / in life observation / clinical signs / arrhythmia + systemic…
[33] = group: developmental, developmental / developmental malformation / bone / incomplete ossification + systemic / in life observation / body weight / fetal weight
[34] = group: maternal, systemic / in life observation / body weight / body weight gain + systemic / in life observation / food consumption / food consumption
[35] = systemic / in life observation / body weight / body weight + systemic / in life observation / body weight / body weight gain + systemic / in…
[36] = systemic / organ weight / liver / relative to body weight + systemic / pathology microscopic / liver / cytoplasmic alteration + systemic / …
[37] = group: offspring, systemic / organ weight / brain / nos + systemic / in life observation / body weight / offspring (pup) weight + systemic / organ weight / …
[38] = systemic / organ weight / liver / relative to brain weight + systemic / pathology gross / liver / [other] + systemic / pathology microscopic…
[39] = systemic / pathology microscopic / spleen / pigmentation
[40] = systemic / clinical chemistry / alkaline phosphatase (alp/alk) / alkaline phosphatase (alp/alk) + systemic / clinical chemistry / …
[41] = systemic / clinical chemistry / alkaline phosphatase (alp/alk) / alkaline phosphatase (alp/alk) + systemic / in life observation / clinical …
[42] = systemic / organ weight / liver / absolute + systemic / organ weight / liver / relative to body weight + systemic / organ weight / liver / …
[43] = systemic / pathology gross / liver / [other] + systemic / pathology microscopic / thyroid gland / colloid content
[44] = systemic / clinical chemistry / cholesterol / cholesterol + systemic / organ weight / liver / absolute + systemic / organ weight / liver / …
[45] = systemic / pathology gross / liver / enlarged
[46] = systemic / pathology microscopic / kidney / cytomegaly + systemic / pathology microscopic / thyroid gland / hyperplasia
[47] = systemic / pathology microscopic / kidney / cytomegaly + systemic / pathology microscopic / thyroid gland / hyperplasia + systemic / …
[48] = systemic / pathology microscopic / intestine large / adenocarcinoma + systemic / pathology microscopic / intestine large / polyp adenomatous…
[49] = systemic / pathology microscopic / kidney / cytomegaly + systemic / pathology microscopic / liver / necrosis
[50] = systemic / in life observation / body weight / body weight + systemic / in life observation / mortality / mortality + systemic / pathology …
[51] = systemic / in life observation / body weight / body weight + systemic / pathology microscopic / liver / granuloma + systemic / pathology …

Cc1cc2c3c(c1)C(c1ccccc1)=N[C@@H](NC(=O)c1ccncc1)C(=O)N3CC2 [CI-1018]
LEL [1]: 740 mg/kg/day | LOAEL [1]: > 740 mg/kg/day | NEL [1]: < 740 mg/kg/day | NOAEL [1]: ≥ 740 mg/kg/day | LOAEL [2]: > 100 mg/kg/day | NEL [2]: 10 mg/kg/day | NOAEL [2]: ≥ 100 mg/kg/day | LEL [3]: 1000 mg/kg/day | LOAEL [3]: > 1000 mg/kg/day | NEL [3]: 300 mg/kg/day | NOAEL [3]: ≥ 1000 mg/kg/day | LEL [4]: 375 mg/kg/day | LOAEL [4]: > 750 mg/kg/day | NEL [4]: 75 mg/kg/day | NOAEL [4]: ≥ 750 mg/kg/day | LOAEL [5, 25]: > 300 mg/kg/day | NOAEL [5, 25]: ≥ 300 mg/kg/day | LEL [5, 26]: 30 mg/kg/day | NEL [5, 26]: < 30 mg/kg/day

CC[C@H]1CC[C@H](NCc2cc3c(cc2OC)[C@H]2C[C@H]2C(=O)N3C)[C@H](c2ccccc2)N1
LOAEL [6, 27]: > 100 mg/kg/day | NEL [6, 27]: 3 mg/kg/day | NOAEL [6, 27]: ≥ 100 mg/kg/day | LEL ([6]; systemic / in life observation / clinical signs / salivation + systemic / organ weight / liver / absolute): 30 mg/kg/day | LOAEL [7, 28]: > 100 mg/kg/day | NOAEL [7, 28]: ≥ 100 mg/kg/day | LEL [7, 29]: 6 mg/kg/day | NEL [7, 29]: < 6 mg/kg/day | LOAEL [8, 30]: > 100 mg/kg/day | NEL [8, 30]: 3 mg/kg/day | NOAEL [8, 30]: ≥ 100 mg/kg/day | LEL ([8]; systemic / organ weight / liver / absolute): 30 mg/kg/day | LEL [9, 31]: 3 mg/kg/day | NEL [9, 31]: < 3 mg/kg/day | LOAEL [9, 32]: > 15 mg/kg/day | NOAEL [9, 32]: ≥ 15 mg/kg/day | LEL [10]: 100 mg/kg/day | LOAEL [10]: > 100 mg/kg/day | NOAEL [10]: ≥ 100 mg/kg/day

CSC1=N[C@@](C)(c2ccccc2)C(=O)N1Nc1ccccc1 [Fenamidone]
LEL [11, 33]: 1000 mg/kg/day | LOAEL [11, 33]: 1000 mg/kg/day | NEL [11, 33]: 150 mg/kg/day | NOAEL [11, 33]: 150 mg/kg/day | LEL [11, 34]: 1000 mg/kg/day | LOAEL [11, 34]: 1000 mg/kg/day | NEL [11, 34]: 150 mg/kg/day | NOAEL [11, 34]: 150 mg/kg/day | LEL [12]: 305 mg/kg/day | LOAEL [12]: 305 mg/kg/day | NEL [12]: 29.7 mg/kg/day | NOAEL [12]: 29.7 mg/kg/day | LOAEL [13, 35]: 526 mg/kg/day | NEL [13, 35]: 9.5 mg/kg/day | NOAEL [13, 35]: 47.5 mg/kg/day | LEL ([13]; systemic / organ weight / liver / nos): 47.5 mg/kg/day | LEL ([14]; systemic / clinical chemistry / aspartate aminotransferase (ast/sgot) / aspartate aminotransferase (ast/sgot)): 10.4 mg/kg/day | LOAEL ([14]; systemic / organ weight / liver / relative to body weight + systemic / pathology microscopic / liver / cytoplasmic alteration): 68.3 mg/kg/day | NEL [14, 36]: 4.05 mg/kg/day | NOAEL [14, 36]: 10.4 mg/kg/day | NEL ([15]; systemic / organ weight / uterus / absolute + systemic / organ weight / uterus / relative to body weight): 335 mg/kg/day | LOAEL ([15]; systemic / pathology microscopic / thyroid gland / hyperplasia): 7.07 mg/kg/day | NOAEL ([15]; systemic / pathology microscopic / thyroid gland / hyperplasia + systemic / clinical chemistry / alanine aminotransferase (alt/sgpt) / …): 2.83 mg/kg/day | LOAEL ([16]; group: offspring): 89.2 mg/kg/day | LEL ([16]; group: offspring, systemic / organ weight / brain / nos + systemic / in life observation / body weight / offspring (pup) weight): 89.2 mg/kg/day | NEL [16, 37]: 5.45 mg/kg/day | NOAEL [16, 37]: 5.45 mg/kg/day | LEL ([16]; group: parental, systemic / in life observation / food consumption / food consumption): 63.8 mg/kg/day | NEL ([16]; group: parental, systemic / in life observation / food consumption / food consumption + systemic / in life observation / body weight / body weight + systemic…): 3.9 mg/kg/day | LOAEL ([16]; group: parental): 89.2 mg/kg/day | NOAEL ([16]; group: parental, systemic / organ weight / brain / nos + systemic / in life observation / body weight / body weight + systemic / organ weight / liver / …): 5.45 mg/kg/day | LOAEL [17, 38]: 220 mg/kg/day | NOAEL [17, 38]: 44.5 mg/kg/day | LEL [17, 39]: 11.3 mg/kg/day | NEL [17, 39]: < 11.3 mg/kg/day | LEL [18, 40]: 1000 mg/kg/day | LOAEL [18, 40]: 1000 mg/kg/day | NEL [18, 41]: 100 mg/kg/day | NOAEL [18, 41]: 100 mg/kg/day | LOAEL [19, 42]: 32.9 mg/kg/day | NOAEL [19, 42]: 6.42 mg/kg/day | LEL [19, 43]: 6.42 mg/kg/day | NEL [19, 43]: < 6.42 mg/kg/day | LOAEL [20, 44]: 93.3 mg/kg/day | NOAEL [20, 44]: 9.4 mg/kg/day | LEL [20, 45]: 9.4 mg/kg/day | NEL [20, 45]: < 9.4 mg/kg/day

ClC(Cl)Br [Bromodichloromethane]
LOAEL [21, 46]: 25 mg/kg/day | NOAEL [21, 46]: < 25 mg/kg/day | LEL [21, 47]: 25 mg/kg/day | NEL [21, 47]: < 25 mg/kg/day | LOAEL [22, 48]: > 100 mg/kg/day | NOAEL [22, 48]: ≥ 100 mg/kg/day | LEL [22, 49]: 50 mg/kg/day | NEL [22, 49]: < 50 mg/kg/day | LEL ([23]; systemic / in life observation / body weight / body weight): 150 mg/kg/day | LOAEL [23, 50]: > 300 mg/kg/day | NEL [23, 50]: 75 mg/kg/day | NOAEL [23, 50]: ≥ 300 mg/kg/day | LEL ([24]; systemic / in life observation / body weight / body weight + systemic / pathology microscopic / kidney / necrosis): 100 mg/kg/day | LOAEL [24, 51]: > 400 mg/kg/day | NOAEL [24, 51]: ≥ 400 mg/kg/day
